SMILES | logP
CC(=O)OC/C=C(\C)CCC=C(C)C | 4.04
CC(C)C12CCC(C)(CC1)O2 | 2.97
CC=Cc1ccc(O)c(OC)c1 | 3.04
CC1CCC(C(C)C)C(O)C1 (centres undefined) | 3.4
C=C(C)[C@@H]1CC=C(C=O)CC1 | 3.13
C=C(C)C1CCC2(C)OC2C1 (centres undefined) | 3.2
C=C(C)[C@@H]1CC=C(C)C(=O)C1 | 2.71
C=C(C)C1CC=C(CO)CC1 (centres undefined) | 3.17
CC1(C)[C@H]2CC[C@](C)(C2)[C@H]1O | 3.17
CC(C)=CCC[C@@H](C)CC=O | 3.83
CC1=CC(=O)[C@H]2C[C@@H]1C2(C)C | 2.23
CC1(C)C2CC=C(C=O)C1C2 (centres undefined) | 2.98
C=C(C)C1CC=C(C)C(O)C1 (centres undefined) | 3.12
C=CC1(C)CCC(C(C)(C)O)O1 (centres undefined) | 2.43
CC1=CC(=O)C(C(C)C)CC1 (centres undefined) | 2.85
CC(=O)OC1CC(C)CCC1C(C)C (racemic) | 4
CC1(C)C2CCC(CN)C1C2 (centres undefined) | 2.05
C=CC(C)(CCC=C(C)C)OC(C)=O (centres undefined) | 3.93
CC1=CCC(C(C)(C)O)C[C@@H]1O (some centres undefined) | 1.81
CC(C)=CCC/C(C)=C/CO | 3.56

SMILES | logP
CC1=CC2C(CC1)C2(C)C (centres undefined) | 4.44
CC1=CC(O)C2CC1C2(C)C (centres undefined) | 3.16
CC1=CC=C(C(C)C)CC1 | 4.25
CC1=CCC2C(C1=O)C2(C)C (centres undefined) | 2.42
CC1=CCC(O)(C(C)C)CC1 (centres undefined) | 3.26
CC1(C)[C@@H]2CC[C@@]1(C)[C@H](O)C2 | 3.24
CC(=O)/C=C/C1C(C)=CCCC1(C)C (centres undefined) | 3.85
CC1=CCC2C(C1)C2(C)C (centres undefined) | 4.38
C=C(C)C1CCC(C)C(O)C1 (centres undefined) | 3.21
C=C1[C@H]2CC[C@H](C2)C1(C)C | 4.22
CC(=O)OC(C)(C)C1CC=C(C)CC1 (centres undefined) | 3.96
CC1(C)C2CC=C(CO)C1C2 (centres undefined) | 3.22
CC(C)[C@@H]1CC[C@@H](C)CC1=O | 3.05
CC12CCC(C1)C(C)(C)C2=O (centres undefined) | 3.52
C=C(C)C1CCC(C)C(=O)C1 (centres undefined) | 2.85
C=C1CCC2CC1C2(C)C (centres undefined) | 4.16
CC(C)=C1CC[C@@H](C)CC1=O | 3.08
CC12CCC(CC1)C(C)(C)O2 | 2.74
Cc1ccc(C(C)C)cc1O | 3.49

From the OPERA property sets (Mansouri et al. 2018)
